From patent publication US12097329B2, “Apparatus to administer drugs to mechanically ventilated patients” (Chiesi Farmaceutici S.p.A., priority 2018, dated 2024)
Structures can show the parent of a compound that is named as a salt.

Experiments:
[1] = Aerosol performance by Next Generation Impactor (NGI), drug quantified by HPLC; format: physicochemical; conditions: BDP + FF 100 + 6 μg/10 mg DPI 37° C. 75% RH T-vol 500; connected to ventilation system through the connector
Experimental: A powder formulation was prepared according to the teaching of Examples 2 and 3 of WO 2013/110632 and loaded in the multi-dose dry powder inhaler described in WO 2016/000983. A ventilator system Monnal T75, available from Air Liquid Medical Systems […], Italy) was used. A Catheter mounth (ID 10 mm, length 17 cm) and an endotracheal catheter (ID 8 mm, length 8.5 cm) were also utilized. Other equipments were standard. The following conditions were set-up: tidal volume: 500 ml; PEEP 5 cmH2O; Flow rate: about 41 l/min; breath frequency: 15 bpm. All tests were performed at room temperature and lung temperature (about 37° C.) with in line humidification (about 75% relative humidity system). The inhaler was connected to the ventilation system through the connector of the invention. The evaluation of the aerosol performance was carried out using the Next Generation Impactor (NGI) according to the conditions reported in the European Pharmacopeia 8.5th Ed 2015, par 2.9.18, pages 309-320. After aerosolization of three doses from the inhaler device, the NGI apparatus was disassembled and the amounts of drug deposited in the stages were recovered by washing with a solvent mixture and then quantified by High-Performance Liquid Chromatography (HPLC).

[2] = as above; format: physicochemical; conditions: BDP + FF 100 + 6 μg/10 mg DPI - Release

| SMILES | DD (delivered dose) [1] [µg] | EFPF (extrafine particle fraction) [1] [% on DD] | EFPM (extrafine FPM) [1] [µg] | FPF (fine particle fraction) [1] [% on DD] | FPM (fine particle mass, particle size equal to or lower than 5.0 micron) [1] [µg] | DD (delivered dose) [2] [µg] | EFPF (extrafine particle fraction) [2] [% on DD] | EFPM (extrafine FPM) [2] [µg] | FPF (fine particle fraction) [2] [% on DD] | FPM (fine particle mass, particle size equal to or lower than 5.0 micron) [2] [µg] |
| --- | --- | --- | --- | --- | --- | --- | --- | --- | --- | --- |
| CCC(=O)OCC(=O)[C@@]1(OC(=O)CC)[C@@H](C)C[C@H]2[C@@H]3CCC4=CC(=O)C=C[C@]4(C)[C@@]3(Cl)[C@@H](O)C[C@@]21C [BDP, beclometasone dipropionate] | 66.52 | 34.76 | 23.12 | 61.92 | 41.19 | 81.05 | 29.43 | 23.85 | 64.14 | 51.99 |
| COc1ccc(CC(C)NCC(O)c2ccc(O)c(NC=O)c2)cc1 (stereo not drawn) [FF, formoterol fumarate dihydrate] | 3.84 | – | – | – | – | 4.64 | – | – | – | – |
